For one assay, the system named is HL60 cells. The assay is described as follows: Activity on the differentiation of HL60 cells (NBT reduction). It counts as cell-based. The note with it: for AC50: Homo sapiens, HL-60, 96 h, HL60 cells, culturing for 4 days, NBT-positive cells counted; for differentiation-inducing activity on HL60 cells compared with calcitriol: comparison in words. The source says: The biological properties analogous to vitamin D may also be measured by means of the capacity of the product to induce the differentiation of promyelocytic leukemia cells HL60. The protocol and also the results obtained with the compounds according to the invention are described in Example 8 of the present patent application.
Calcitrol induces the differentiation of promyelocytic leukaemia cells (HL60) into monocytes/macrophages. This differentiation-inductive effect is a well-characterized marker of cellular vitamin D. One of the most important antimicrobial products of macrophages is hydrogen peroxide, which may be analysed experimentally by the reduction of NBT (Nitroblue Tetrazolium).
The method used is as follows: the HL60 cells are inoculated into 6-well plates and then treated immediately with a test compound. After culturing for 4 days, the cells are incubated with phorbol TPA ester and NBT for a short period and the differentiated cells, i.e., the ones that are positive to NBT, are counted.

The next assay deals with T1, human VDR receptor (Homo sapiens, UniProt P11473).
T1 construct: expressed in transfected cells; host or cells: HeLa
T1 sequence (P11473 1-427): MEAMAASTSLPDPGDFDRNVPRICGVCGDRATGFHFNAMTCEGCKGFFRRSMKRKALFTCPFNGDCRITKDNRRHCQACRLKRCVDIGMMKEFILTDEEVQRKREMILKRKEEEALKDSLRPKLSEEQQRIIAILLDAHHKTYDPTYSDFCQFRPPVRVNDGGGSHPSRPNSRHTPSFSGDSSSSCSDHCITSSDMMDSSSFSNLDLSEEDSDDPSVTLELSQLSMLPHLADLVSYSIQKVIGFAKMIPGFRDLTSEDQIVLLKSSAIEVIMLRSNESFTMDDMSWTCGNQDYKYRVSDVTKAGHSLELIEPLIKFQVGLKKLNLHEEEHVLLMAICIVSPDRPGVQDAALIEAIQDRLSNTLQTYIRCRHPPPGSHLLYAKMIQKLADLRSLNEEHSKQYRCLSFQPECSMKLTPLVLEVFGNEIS
The assay is described as follows: VDR agonist activity, HeLa cotransfection with reporter plasmid p240Hase-CAT. It counts as cell-based. The note with it: for AC50: HeLa cells, treatment for 18 hours, CAT activity by ELISA; for VDR agonist activity compared with calcitriol: comparison in words. As for the experimental part:
By way of example, the VDR agonist activity may be tested on the HeLa cell line by cotransfection of an expression vector of the human VDR receptor and of the reporter plasmid p240Hase-CAT. The agonist activity may also be characterized in this cotransfection system, by determining the dose required to achieve 50% of the maximum activity of the product (AC50).
18 hours after cotransfection, the test compound is added to the medium. After treatment for 18 hours, the CAT activity of the cell lysates is assayed by means of an ELISA test (Enzyme Linked ImmunoSorbent Assay, sold by Roche Molecular Biochemicals).
In general terms: ELISA stands for enzyme-linked immunosorbent assay.

Assay [1] has as its system normal human keratinocytes. The assay is described as follows: Activity on the proliferation of human keratinocytes (BrdU incorporation). The note with it: for IC50: Homo sapiens, Keratinocyte, 120 h, read-out: IC50-proliferation of KHNs.
Procedure: The biological properties analogous to vitamin D may also be measured by means of the capacity of the product to inhibit the proliferation of normal human keratinocytes (NHK in culture). The product is added to NHKs cultured under conditions promoting the proliferative state. The product is left in contact with the cells for five days. The number of proliferative cells is measured by incorporation of bromodeoxyuridine (BRdU) into the DNA.
The method used is as follows: normal human keratinocytes are inoculated at low density into a 24-well plate. After 4 hours, the test compounds are added to the culture medium. After culturing for 5 days, the proliferation of the keratinocytes is determined by incorporating 5-bromo-2′-deoxyuridine (BrdU) into the DNA. The amount of BrdU incorporated is then measured using the ELISA test (Enzyme Linked ImmunoSorbent Assay, sold by Roche Molecular Biochemicals).

One may read the AC50 as the concentration giving half of the maximal activity seen. Read a low AC50 as greater potency.

For `CCC(O)(CC)c1ccc(-c2cc(NCc3ccc(CO)c(CO)c3)ccc2C)c(C)c1` [Example 6, (4-{[4′-(1-Ethyl-1-hydroxypropyl)-6,2′-dimethylbiphenyl-3-ylamino]-methyl}-2-hydroxymethylphenyl)methanol], in the assay with HL60 cells, the AC50 amounted to 147 nM and the “differentiation-inducing activity on HL60 cells compared with calcitriol” value is given as “less good activity compared with calcitriol”. In addition, on human VDR receptor, half-maximal activity (AC50) was put at 50 nM and the “VDR agonist activity compared with calcitriol” value was “less good activity compared with calcitriol”. Moreover, the IC50 in assay [1] turned out to be 122 nM. Also, the “inhibitory activity on keratinocyte proliferation compared with calcitriol” value in assay [1] (comparison in words) is “less good activity compared with calcitriol”.

With `CCCc1cc(C(O)(CC)CC)ccc1-c1cc(OCc2ccc(CO)c(CO)c2)ccc1CC` [Example 3, {4-[6-Ethyl-4′-(1-ethyl-1-hydroxypropyl)-2′-propylbiphenyl-3-yloxymethyl]-2-hydroxymethylphenyl}methanol], the figures for the AC50 in the assay on HL60 cells and on human VDR receptor were 11 nM and 2.2 nM, respectively. The IC50 in assay [1] stood at 15 nM.

On to `CCc1cc(C(O)(CC)CC)ccc1-c1cc(OCc2ccc(CO)c(CO)c2)ccc1CC` [Example 2, {5-[6,2′-Diethyl-4′-(1-ethyl-1-hydroxypropyl)biphenyl-3-yloxymethyl]-2-hydroxymethylphenyl}methanol], for which the AC50 was found to be 15 nM with HL60 cells and 4.1 nM at human VDR receptor. The IC50 in assay [1] was found to be 53 nM.

`C=C1/C(=C\C=C2/CCC[C@]3(C)[C@@H]([C@H](C)CCCC(C)(C)O)CC[C@@H]23)C[C@@H](O)C[C@@H]1O` [Calcitriol, 1,25-dihydroxyvitamin D3, reference compound] gave an AC50 in the assay on HL60 cells of 10.7 nM.

In the case of `CCc1ccc(OCc2ccc(CO)c(CO)c2)cc1-c1ccc(C(O)(CC)CC)cc1C(C)C` [Example 4, {4-[6-Ethyl-4′-(1-ethyl-1-hydroxypropyl)-2′-isopropylbiphenyl-3-yloxymethyl]-2-hydroxymethylphenyl}methanol], the AC50 in the assay with HL60 cells came out at 27 nM; at human VDR receptor, 3.2 nM. In assay [1], the IC50 worked out at 26 nM.

Turning to `CCCc1cc(C(O)(CC)CC)ccc1-c1cc(CCc2ccc(CO)c(CO)c2)ccc1C` [Example 5, (4-{2-[4′-(1-Ethyl-1-hydroxypropyl)-6-methyl-2′-propylbiphenyl-3-yl]ethyl}-2-hydroxymethylphenyl)methanol], in the assay with HL60 cells, the AC50 came to 1.8 nM and the “differentiation-inducing activity on HL60 cells compared with calcitriol” value is on record as “markedly superior activity”. Moreover, at human VDR receptor, the AC50 is 0.6 nM and the “VDR agonist activity compared with calcitriol” value was “superior activity”. Besides, the IC50 in assay [1] was 2.4 nM. Also, in assay [1] (fold greater than calcitriol), the “activity on keratinocyte proliferation relative to calcitriol” value is on record as “more than 5 times”.

As to `CCCc1cc(C(O)(CC)CC)ccc1-c1cc(OCc2ccc(CO)c(CO)c2)ccc1C` [Example 1, {5-[4′-(1-Ethyl-1-hydroxypropyl)-6-methyl-2′-propylbiphenyl-3-yloxy-methyl]-2-hydroxymethylphenyl}methanol], the AC50 in the assay with HL60 cells turned out to be 7.6 nM; on human VDR receptor, 2.4 nM. The IC50 in assay [1] is 16 nM.

The values are drawn from patent US6924400B2, “Triaromatic vitamin D analogues” (Galderma Research & Development, SNC, priority 2001, dated 2005).
